The record followed here is ChEMBL document CHEMBL1134491, “QSAR and molecular modeling studies of baclofen analogues as GABA(B) agonists. Insights into the role of the aromatic moiety in GABA(B) binding and activation” (J Med Chem, 2001).

A short description of the experiment: Inhibitory concentration against binding of (R)-(-)-[3H]-baclofen to GABAB sites on rat whole brain synaptic membrane.
On to `Cc1ccc([C@H](CN)CC(=O)O)o1`, for which the IC50 (in general, the concentration needed to halve the response being measured) is greater than 100 µM.

For `NC[C@H](CC(=O)O)c1ccsc1`, the IC50 was determined as 20.9 µM. That is a double-digit micromolar value.

In turn, `NC[C@H](CC(=O)O)c1ccco1` showed an IC50 greater than 100 µM.

`NC[C@H](CC(=O)O)c1cc(Cl)cs1` yielded an IC50 of 45.3 µM.

On to `Cc1ccc([C@H](CN)CC(=O)O)s1`, for which the IC50 is 134 µM.

The compound `NC[C@H](CC(=O)O)c1ccc(F)cc1` gave an IC50 of 0.8 µM.

`NC[C@H](CC(=O)O)c1ccc(Cl)s1` returned an IC50 of 0.61 µM.

For `Cc1ccsc1[C@H](CN)CC(=O)O`, the 50% inhibitory concentration (IC50) worked out at 124 µM.

Take `NC[C@H](CC(=O)O)c1ccc(Br)s1`: the IC50 stood at 1.86 µM.

The compound `NC[C@H](CC(=O)O)c1cccs1` displayed an IC50 of 9.72 µM. This IC50 is about 5.2-fold higher than that of the compound before.

In turn, `NC[C@H](CC(=O)O)c1cc(Br)cs1` displayed an IC50 of 39.1 µM.

In turn, `NC[C@H](CC(=O)O)c1ccc(O)cc1` yielded an IC50 greater than 100 µM.

`NC[C@H](CC(=O)O)c1cccc(Cl)c1`: the IC50 was 20 µM. This counts as double-digit micromolar.

Consider `NC[C@H](CC(=O)O)c1ccccc1Cl`, for which the IC50 worked out at 0.8 µM. This IC50 is about 25-fold lower than that of the compound before.
